# Measured values as given in PubChem BioAssay AID435029 (Sanford-Burnham Center for Chemical Genomics, 2010).
# Calls of active or inactive are those of the source. The rule behind the calls is not given here.
# Test system: HIV Env-mediated cell-cell fusion, luminescence reporter
# Test: blockers of envelope-mediated cell fusion – luminescence reporter, SAR follow-up (AID 435029)
row,Structure (SMILES),IC50
1,COc1cc(C=NNc2ccc(Cl)c(C(=O)O)c2)ccc1OC(=O)c1ccccc1F,68 µM
2,CC(C)(C)c1cc(-c2csc(Nc3ccccc3)[n+]2Cc2ccc(C(=O)O)cc2)cc(C(C)(C)C)c1O,3.5 µM
3,O=C(O)c1ccccc1N=Nc1c(O)[nH]c2ccc([N+](=O)[O-])cc12,> 100 µM (inactive)
4,COc1cc(C=NNc2ccc(Cl)c(C(=O)O)c2)ccc1OC(=O)c1ccc(F)cc1,30 µM
5,CCOC(=O)c1sc(N2C(=O)C(O)=C(C(=O)c3ccc(C)o3)C2c2cccc([N+](=O)[O-])c2)nc1C (stereo not given),5.1 µM
6,COc1ccc(C(=O)Oc2ccc(C=NNc3ccc(Cl)c(C(=O)O)c3)cc2OC)cc1,13 µM
7,O=C(N/N=C/c1c(O)n(C2CCCCC2)c(=S)[nH]c1=O)c1ccccc1O,11.5 µM
8,N#C/C(=C\c1ccc(O)c([N+](=O)[O-])c1)c1nc2ccccc2s1,4.65 µM
9,Cc1c2c(=O)n(-c3nc4ccccc4s3)nc-2cc(O)n1Cc1ccccc1,6.58 µM
10,O=C(O)c1cc(NN=Cc2ccc(-c3ccccc3)cc2)ccc1Cl,10 µM
